A short description of data set [1]: Acute toxicity. To be noted: mouse, in vivo, ip; intraperitoneal, female NMRI mice; dose which causes death of 50% of animals; read-out: Toxicity LD 50. As for the experimental part:
The substances are administered intraperitoneally to groups of 5-10 female NMRI mice.

Data set [2] relates to female Sprague-Dawley rats. Description: Apomorphine-antagonistic effect: apomorphine-triggered jaw motions (mandibulogram). To be noted: Rattus norvegicus, sc, read-out: Apomorphine antagonism ED 50%; female Sprague-Dawley rats; 1.5 mg of apomorphine/kg s.c.; dose which reduces number of jaw movements by 50%. The format is in vivo. As for the experimental part:
4. Apomorphine-antagonistic effect
Jaw motions are triggered in groups of 4-6 female Sprague-Dawley rats by subcutaneous administration of 1.5 mg of apomorphine/kg, and are recorded by means of implanted electrodes (KUBACKI mandibulogram, 1978).

The subject of data set [3] is female NMRI mice. Description: Analgesic effect: D'amour and Smith tail-flick method. In kind it is in vivo. For orientation: Hot-plate and tail-flick tests time the reaction to a heat stimulus.
Description: The analgesic effect is determined by means of the D'amour and Smith (1941) tail-flick method. In this, the substances are administered intraperitoneally to groups of 10 female NMRI mice. The pain reaction is triggered 30 minutes after administration. The reaction time, until the tail is flicked out of the way after exposure to a focused light beam, is measured.
Data set [4] deals with female NMRI mice. Put plainly: Sedative effect: orientation hypermotility in a new environment, measured photoelectrically. The format is in vivo. To be noted: for ED50: Mus musculus, 0.5 h, read-out: Sedative effect ED 50%, oral, female NMRI mice, dose which reduces orientation hypermotility by 50% vs untreated controls, 30 min after administration. The protocol:
The substances are administered orally to groups of 4×3 or 8×3 female NMRI mice. The orientation hypermotility induced by a new environment is determined photoelectrically, 30 minutes after the administration of the substances, for a period of 30 minutes.

The subject of data set [5] is female NMRI mice. Description: Anti-cholinergic effect: protection against death from Physostigmin. The format is in vivo. The conditions noted are these: for ED50: Mus musculus, read-out: Anti-cholinergic effect ED 50%, oral, 30 min before Physostigmin 0.825 mg/kg s.c., female NMRI mice, dose which protects 50% of animals against death; for Anti-cholinergic effect R.A. (relative activity): Clozapin = 1.00. The protocol: 3. Anti-cholinergic effect
A lethal dose (0.825 mg/kg) of Physostigmin is administered subcutaneously to groups of 10 female NMRI mice. The test substances are administered orally 30 minutes before administering the Physostigmin.

Two molecules from US4336192A, “5,6-Dihydro-11-alkylene-morphanthridin-6-ones” (BASF Aktiengesellschaft, priority 1979, dated 1982) can be followed below.

For the molecule `N#CC=C1c2ccccc2N=C(NCCN2CCCCC2)c2ccccc21` (mixture of isomers) [Example 39 (cis-trans mixture), cis,trans-11-Cyanomethylene-6-(2-piperidin-1-ylethylamino)-morphanthridine.1/2H2 O], the LD50 in data set [1] worked out at 5.35 mg/kg. The values for the ED50 in data set [2], in data set [4] and in data set [5] were 46 mg/kg, 1.61 mg/kg and over 10 mg/kg, respectively. Moreover, the “Analgesic effect R.A. (relative activity)” value in data set [3] (relative activity, Clozapin = 1.00) is listed as over 0.21. In data set [4] (result in words), the “Sedative effect (in words)” value is “strong sedative effects”. For the same molecule, the “Anti-cholinergic effect R.A. (relative activity)” value in data set [5] is over 1.41.

In the case of `CN1CCN(C2=Nc3ccccc3Cc3ccccc32)CC1` [Perlapin, reference compound], the LD50 in data set [1] came to 215 mg/kg. Besides, the ED50 in data set [2] is 22 mg/kg; in data set [4] it was 2.05 mg/kg; in data set [5], over 21.5 mg/kg. The “Analgesic effect ED 100%” value in data set [3] (intraperitoneal, female NMRI mice, dose which lengthens tail-flick reaction time by 100% vs control, 30 min after administration) is reported as over 21.5. Further, in data set [5], the “Anti-cholinergic effect R.A. (relative activity)” value is given as under 0.66.
